What was measured:
A549 = assay: Cell proliferation assay (Prolif.), IC50 scored relative to DMSO control; format: cell-based; conditions: A549 cells; for Prolif, A549: IC50 class relative to DMSO control; for Rel. Prolif., A549: scored low/medium/high
Experimental: Cell Proliferation Assay (Prolif.) Guo et al. (2018) Nat. Chem. 11:254-63. Specific cell lines are indicated in each assay and cultured in complete growth media. Activity is scored according to the IC50 values relative to DMSO control. “Low” indicates an IC50 greater than 600 nM, “Medium” indicates an IC50 between 300 nM and 600 nM “High” indicates an IC50 less than 300 nM. “Rel.Uptake” refers to uptake activity characterization relative to a single concentration assay. “Low” indicates a response greater than 0.6 times the activity relative to DMSO, “Medium” indicates a response between 0.6 and 0.3 times the activity relative to DMSO, “High” indicates a response less than 0.3 times the activity relative to DMSO.

[1] = system: Rat Renal Ischemia-Reperfusion model; assay: Rat Renal Ischemia-Reperfusion model; format: in vivo, Sprague Dawley Rats; conditions: treated 30 min prior to right nephrectomy and left renal clamping; 24 hours of reperfusion; 1593 at 12 or 4 mg/kg, 1594 at 4 mg/kg
Experimental: Briefly, Sprague Dawley Rats were treated test compound 30 min prior to a right nephrectomy and with underwent clamping of the left renal clamping for 15 mins. After 24 hours of reperfusion, blood was collected to measure biomarkers for kidney damage and the kidney was removed for histology. […] SHAM indicates an animal group with right nephrectomy without ischemic injury. VE indicates vehicle. DPA indicates dipyridamole administered in a dosage of 10 mg/kg. Compound 1593 was administered at a high dosage (12 mg/kg) or a low dosage (4 mg/kg). Compound 1594 was administered at 4 mg/kg.

[2] = Nucleoside uptake, single concentration assay (Rel.Uptake); cell line indicated in each table; format: cell-based; conditions: nucleoside uptake, single concentration assay, 293T cells, response relative to DMSO
Experimental: Nucleoside Uptake Assay (uptake). Nuceloside uptake assays were performed with using 3H-Thymidine as described in Guo et al. (2018) Nat. Chem. 11:254-63. Specific cell lines are indicated in each assay and cultured in complete growth media. Activity is scored according to the IC50 values relative to DMSO control. “Low” indicates an IC50 greater than 600 nM, “Medium” indicates an IC50 between 300 nM and 600 nM “High” indicates an IC50 less than 300 nM. “Rel.Uptake” refers to uptake activity characterization relative to a single concentration assay. “Low” indicates a response greater than 0.6 times the activity relative to DMSO, “Medium” indicates a response between 0.6 and 0.3 times the activity relative to DMSO, “High” indicates a response less than 0.3 times the activity relative to DMSO.

NCI-H929 = assay: Cell proliferation, single concentration assay (Rel. Prolif.), response relative to DMSO; format: cell-based; conditions: NCI-H929 cells, activity relative to DMSO
[3] = proliferation response relative to DMSO control

| Compound | Prolif, A549 (A549) | Rel. Prolif., A549 (A549; [3]) | further results |
| --- | --- | --- | --- |
| CCCC[C@H]1C(=O)N[C@@H](Cc2ccc3ccccc3c2)C(=O)N(C)[C@@H](COC(C)(C)C)C(=O)NCC(=O)N(C)CCC=CC(=O)OCC(C)(C)C(=O)C(=O)N2CCCC[C@H]2C(=O)O[C@H](CCc2cc(OC)c(OC)cc2O)c2cccc(c2)OCC(=O)N1C [Compound 567] | me- dium | medium | – |
| CCCC[C@H]1C(=O)N[C@@H](Cc2ccc3ccccc3c2)C(=O)N(C)[C@@H](COC(C)(C)C)C(=O)NCC(=O)N(C)CCC=CC(=O)OCC(C)(C)C(=O)C(=O)N2CCCC[C@H]2C(=O)O[C@H](CCc2cc(OC)cc(OC)c2OC)c2cccc(c2)OCC(=O)N1C [Compound 563] | – | low | – |
| CCCC[C@H]1C(=O)N[C@@H](Cc2ccc3ccccc3c2)C(=O)N(C)[C@@H](COC(C)(C)C)C(=O)NCC(=O)N(C)CCC=CC(=O)OCC(C)(C)C(=O)C(=O)N2CCCC[C@H]2C(=O)O[C@H](CCc2ccc(OC)c(OC)c2OC)c2cccc(c2)OCC(=O)N1C [Compound 561] | me- dium | medium | – |
| COc1ccc(CC[C@H]2OC(=O)[C@@H]3CCCCN3C(=O)C(=O)C(C)(C)COC(=O)/C=C/CCN(C)C(=O)[C@H](CC(C)C)N(C)C(=O)[C@H]3CCCN3C(=O)[C@H](Cc3ccc(OCC(=O)O)cc3)NC(=O)[C@H](c3ccccc3)NC(=O)CCC(=O)Nc3cccc2c3)cc1OC [Compound 1593] | – | – | efficacy in Rat Renal Ischemia-Reperfusion model [1]: efficacious; Rel. Uptake, 293T [2]: High (“High” indicates a response less than 0.3 times the activity relative to DMSO) |
| CCCC[C@H]1C(=O)N[C@@H](Cc2ccc3ccccc3c2)C(=O)N(C)[C@@H](COC(C)(C)C)C(=O)NCC(=O)N(C)CCC=CC(=O)OCC(C)(C)C(=O)C(=O)N2CCN(C(=O)OCC3c4ccccc4-c4ccccc43)C[C@H]2C(=O)O[C@H](CCc2ccc(OC)c(OC)c2)c2cccc(c2)OCC(=O)N1C [Compound 571] | – | low | – |
| C=CC(=O)OCC(C)(C)C(=O)C(=O)N1CCCC[C@H]1C(=O)O[C@H](CCc1ccc(OC)c(OC)c1)c1cncc(NC(=O)CCC(=O)OC(C)(C)C)n1 [Compound 13] | – | – | Rel. Prolif., A549 (A549; proliferation response relative to DMSO, single concentration): low |
| CCCC[C@H]1C(=O)N[C@@H](Cc2ccc3ccccc3c2)C(=O)N(C)[C@@H](COC(C)(C)C)C(=O)NCC(=O)N(C)CCC=CC(=O)OCC(C)(C)C(=O)C(=O)N2CCCC[C@H]2C(=O)O[C@H](CCc2ccc(OC)c(OC)c2O)c2cccc(c2)OCC(=O)N1C [Compound 565] | me- dium | medium | – |
| CCCC[C@H]1C(=O)N[C@@H](Cc2ccc3ccccc3c2)C(=O)N(C)[C@@H](COC(C)(C)C)C(=O)NCC(=O)N(C)CCC=CC(=O)OCC(C)(C)C(=O)C(=O)N2CCCC[C@H]2C(=O)O[C@H](CCc2ccc(OC)c(OC)c2F)c2cccc(c2)OCC(=O)N1C [Compound 570] | me- dium | medium | – |
| COc1ccc(CC[C@H]2OC(=O)[C@@H]3CCCCN3C(=O)C(=O)C(C)(C)COC(=O)C=CCCN(C)C(=O)[C@@H](Cc3ccccc3)NC(=O)CN(C)C(=O)[C@@H](Cc3ccccc3)NC(=O)[C@H](Cc3ccc(OC(=O)N4CCOCC4)cc3)N(C)C(=O)COc3cc(F)cc2c3)cc1OC [Compound 868] | – | – | Rel. Prolif., NCI-H929 (NCI-H929): low |
| CCCC[C@H]1C(=O)N[C@@H](Cc2ccc3ccccc3c2)C(=O)N(C)[C@@H](COC(C)(C)C)C(=O)NCC(=O)N(C)CCC=CC(=O)OCC(C)(C)C(=O)C(=O)N2CCCC[C@H]2C(=O)O[C@H](CCc2ccc(OC)c(OC)c2)c2cc(F)cc(c2)OCC(=O)N1C [Compound 574] | – | low | – |
| CCCC[C@H]1C(=O)N[C@@H](Cc2ccc3ccccc3c2)C(=O)N(C)[C@@H](COC(C)(C)C)C(=O)NCC(=O)N(C)CCC=CC(=O)OCC(C)(C)C(=O)C(=O)N2CCCC[C@H]2C(=O)O[C@H](CCc2ccc(OC)c(OC)c2)c2ccc(F)c(c2)OCC(=O)N1C [Compound 576] | me- dium | medium | – |
| CCCC[C@H]1C(=O)N[C@@H](Cc2ccc3ccccc3c2)C(=O)N(C)[C@@H](COC(C)(C)C)C(=O)NCC(=O)N(C)CCC=CC(=O)OCC(C)(C)C(=O)C(=O)N2CCCC[C@H]2C(=O)O[C@H](CCc2c(OC)ccc(OC)c2OC)c2cccc(c2)OCC(=O)N1C [Compound 564] | – | low | – |
| CCCC[C@H]1C(=O)N[C@@H](Cc2ccc3ccccc3c2)C(=O)N(C)[C@@H](COC(C)(C)C)C(=O)NCC(=O)N(C)CCC=CC(=O)OCC(C)(C)C(=O)C(=O)N2CCCC[C@H]2C(=O)O[C@H](CCc2cc(OC)c(OC)c(OC)c2)c2cccc(c2)OCC(=O)N1C [Compound 560] | me- dium | medium | – |
| CCCC[C@H]1C(=O)N[C@@H](Cc2ccc3ccccc3c2)C(=O)N(C)[C@@H](COC(C)(C)C)C(=O)NCC(=O)N(C)CCC=CC(=O)OCC(C)(C)C(=O)C(=O)N2CCN(C)C[C@H]2C(=O)O[C@H](CCc2ccc(OC)c(OC)c2)c2cccc(c2)OCC(=O)N1C [Compound 572] | me- dium | medium | – |
| CCCC[C@H]1C(=O)N[C@@H](Cc2ccc3ccccc3c2)C(=O)N(C)[C@@H](COC(C)(C)C)C(=O)NCC(=O)N(C)CCC=CC(=O)OCC(C)(C)C(=O)C(=O)N2CCCC[C@H]2C(=O)O[C@H](CCc2cc(O)c(OC)c(OC)c2)c2cccc(c2)OCC(=O)N1C [Compound 566] | me- dium | medium | – |
| CCCC[C@H]1C(=O)N[C@@H](Cc2ccc3ccccc3c2)C(=O)N(C)[C@@H](COC(C)(C)C)C(=O)NCC(=O)N(C)CCC=CC(=O)OCC(C)(C)C(=O)C(=O)N2CCCC[C@H]2C(=O)O[C@H](CCc2ccc(OC)c(OC)c2)c2cc(ccc2F)OCC(=O)N1C [Compound 573] | – | low | – |
| COc1ccc(CC[C@H]2OC(=O)[C@@H]3CCCCN3C(=O)C(=O)C(C)(C)COC(=O)C=CCCN(C)C(=O)[C@@H](Cc3ccccc3)NC(=O)CN(C)C(=O)[C@@H](Cc3ccccc3)NC(=O)[C@H](Cc3ccc(OC(=O)N4CCOCC4)cc3)N(C)C(=O)COc3cccc2c3F)cc1OC [Compound 867] | – | – | Rel. Prolif., NCI-H929 (NCI-H929): low |
| CCCC[C@H]1C(=O)N[C@@H](Cc2ccc3ccccc3c2)C(=O)N(C)[C@@H](COC(C)(C)C)C(=O)NCC(=O)N(C)CCC=CC(=O)OCC(C)(C)C(=O)C(=O)N2CCCC[C@H]2C(=O)O[C@H](CCc2cc(OC)c(OC)cc2OC)c2cccc(c2)OCC(=O)N1C [Compound 562] | me- dium | medium | – |
| COc1ccc(CC[C@H]2OC(=O)[C@@H]3CCCCN3C(=O)C(=O)C(C)(C)COC(=O)C=CCCN(C)C(=O)[C@@H](Cc3ccccc3)NC(=O)CN(C)C(=O)[C@@H](Cc3ccccc3)NC(=O)[C@H](Cc3ccc(OC(=O)N4CCOCC4)cc3)N(C)C(=O)CCC(=O)Nc3cccc2c3)cc1OC [Compound 869] | – | – | Rel. Prolif., NCI-H929 (NCI-H929): low |
| CCCC[C@H]1C(=O)N[C@@H](Cc2ccc3ccccc3c2)C(=O)N(C)[C@@H](COC(C)(C)C)C(=O)NCC(=O)N(C)CCC=CC(=O)OCC(C)(C)C(=O)C(=O)N2CCCC[C@H]2C(=O)O[C@H](CCc2cc(F)c(OC)c(OC)c2)c2cccc(c2)OCC(=O)N1C [Compound 568] | me- dium | medium | – |
| CCCC[C@H]1C(=O)N[C@@H](Cc2ccc3ccccc3c2)C(=O)N(C)[C@@H](COC(C)(C)C)C(=O)NCC(=O)N(C)CCC=CC(=O)OCC(C)(C)C(=O)C(=O)N2CCCC[C@H]2C(=O)O[C@H](CCc2cc(OC)c(OC)cc2F)c2cccc(c2)OCC(=O)N1C [Compound 569] | me- dium | medium | – |
| COc1ccc(CC[C@H]2OC(=O)[C@@H]3CCCCN3C(=O)C(=O)C(C)(C)COC(=O)C=CCCN(C)C(=O)[C@@H](Cc3ccccc3)NC(=O)CN(C)C(=O)[C@@H](Cc3ccccc3)NC(=O)[C@H](Cc3ccc(O)cc3)N(C)C(=O)COc3cc(F)cc2c3)cc1OC [Compound 1576] | – | – | Rel. Uptake, 293T [2]: medium |
| COc1ccc(CC[C@H]2OC(=O)[C@@H]3CN(C)CCN3C(=O)C(=O)C(C)(C)COC(=O)C=CCCN(C)C(=O)[C@@H](Cc3ccccc3)NC(=O)CN(C)C(=O)[C@@H](Cc3ccccc3)NC(=O)[C@H](Cc3ccc(O)cc3)N(C)C(=O)COc3cccc2c3)cc1OC [Compound 1574] | – | – | Rel. Uptake, 293T [2]: low |

— patent publication US20230000996A1, “RAPAFUCIN DERIVATIVE COMPOUNDS AND METHODS OF USE THEREOF” (The Johns Hopkins University, priority 2019, published 2023)
